Targets include HLA-DRB1*12:01 (Homo sapiens, UniProt P01903+P01911, A100R/A169T/D57E/D86V/F55L/H45Y/K41T/L162R/M171V/P40S/Q125H/Q178H/Q39Y/Q99D/R42G/S66L/T262R/V114A/V67L/W38E/Y59H/Y61H/Y89S); HLA-DRB1*07:01 (Homo sapiens, UniProt P01903+P01911, A100R/A102G/A103Q/D57E/D86V/E43K/F76Y/K127E/L162R/M171V/P40G/Q125H/Q99D/R33Q/R42Y/R54Q/S133A/S66F/T210M/V115G/Y107V/Y59L/Y89S); HLA-DRB1*08:02 (Homo sapiens, UniProt P01903+P01911, A100R/A103L/A169T/F76Y/H45Y/I96F/K41T/L162R/M171V/P40S/Q125H/Q178H/Q39Y/Q99D/R218S/R42G/S66Y/V115G/W38E); HLA-DRB1*15:01 (Homo sapiens, UniProt P01903+P01911); HLA-DRB1*04:05 (Homo sapiens, UniProt P01903+P01911, A100R/A169T/D86S/F76Y/I96L/K127E/L162R/M171V/N62H/P40V/Q125Y/R42H/S133A/S149N/S66Y/V115G/V209L/W38E); HLA-DRB1*04:01 (Homo sapiens, UniProt P01903+P01911, A100K/A169T/F76Y/I96L/K127E/L162R/M171V/N62H/P40V/Q125Y/R42H/S133A/S149N/S66Y/V115G/V209L/W38E); HLA-DRB1*11:01 (Homo sapiens, UniProt P01903+P01911, A100R/A169T/A87E/I96F/K41T/L162R/M171V/P40S/Q125H/Q178H/Q39Y/Q99D/R42S/S66Y/T262R/V115G/W38E); HLA-DRB1*03:01 (Homo sapiens, UniProt P01903+P01911, A100K/A102G/A103R/A169T/F55Y/I96L/K41T/L162R/M171V/P40S/Q125H/Q178H/Q39Y/R42S/S66N/T106N/T262R/W38E/Y61H); HLA-DRB1*01:01 (Homo sapiens, UniProt P01903+P01911, A100R/D57E/F55L/F60I/F76Y/I96L/L162R/M171V/P40L/Q125E/R42F/V115G/Y59C); HLA-DRB1*09:01 (Homo sapiens, UniProt P01903+P01911, A100R/A103E/D57H/D86V/F55Y/F60I/F76Y/I96F/K127E/L162R/M171V/P40D/Q125H/Q99R/R33Q/R42F/S133A/S66N/T210M/V115G/W38K/Y107V/Y59G/Y89S); HLA-DRB1*13:02 (Homo sapiens, UniProt P01903+P01911, A100E/A169T/K41T/L162R/M171V/P40S/Q125H/Q178H/Q39Y/Q99D/R42S/S66N/T262R/V115G/W38E/Y61H).

What all share (test): biochemical
Common to all, as to assay type: binding

Each structure is given as a SMILES string. Some results are limits rather than exact numbers.

Sequence of HLA-DRB1*03:01 (P01903 26-254, other chains not shown): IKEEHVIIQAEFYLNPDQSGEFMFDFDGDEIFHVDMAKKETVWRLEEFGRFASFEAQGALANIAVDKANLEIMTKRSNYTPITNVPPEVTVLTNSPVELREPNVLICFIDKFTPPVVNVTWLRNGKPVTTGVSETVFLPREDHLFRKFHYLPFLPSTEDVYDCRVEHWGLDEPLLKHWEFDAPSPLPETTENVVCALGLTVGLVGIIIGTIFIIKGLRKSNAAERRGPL
Sequence of HLA-DRB1*11:01 (P01903 26-254 limits assumed, other chains not shown): as the sequence (P01903 26-254, other chains not shown) above
Sequence of HLA-DRB1*13:02 (P01903 26-254 limits assumed, other chains not shown): as the sequence (P01903 26-254, other chains not shown) above

For the compound `CC[C@H](C)[C@H](NC(=O)[C@H](Cc1ccccc1)NC(=O)[C@@H](N)CO)C(=O)N[C@@H](CCC(=O)O)C(=O)N[C@@H](CC(=O)O)C(=O)N[C@@H](CC(C)C)C(=O)N[C@@H](CC(C)C)C(=O)N[C@@H](Cc1ccccc1)C(=O)N[C@@H](CC(N)=O)C(=O)N[C@@H](CCCCN)C(=O)N[C@H](C(=O)N[C@H](C(=O)N[C@@H](CC(C)C)C(=O)N[C@@H](C)C(=O)N[C@@H](CC(=O)O)C(=O)O)[C@@H](C)O)C(C)C` [peptide 164], the IC50 turned out to be 0.537 µM at HLA-DRB1*12:01; 3.96 µM against HLA-DRB1*07:01; 15.2 µM on HLA-DRB1*08:02; 3.17 µM against HLA-DRB1*15:01; 2.17 µM against HLA-DRB1*04:05; 1.1 µM on HLA-DRB1*04:01. The IC50 was 13.2 µM on HLA-DRB1*11:01; 3.23 µM on HLA-DRB1*03:01; 4.35 µM against HLA-DRB1*01:01; 1.3 µM against HLA-DRB1*09:01; 0.174 µM against HLA-DRB1*13:02.
Consider `CC[C@H](C)[C@H](NC(=O)CN)C(=O)N[C@@H](Cc1ccc(O)cc1)C(=O)N[C@@H](CCC(N)=O)C(=O)N[C@H](C(=O)N[C@@H](CO)C(=O)N[C@@H](CC(N)=O)C(=O)N[C@@H](Cc1ccccc1)C(=O)N[C@@H](CCCNC(=N)N)C(=O)N[C@H](C(=O)N[C@@H](CCC(N)=O)C(=O)N1CCC[C@H]1C(=O)N[C@H](C(=O)N[C@@H](CCC(=O)O)C(=O)N[C@@H](CO)C(=O)O)[C@@H](C)O)C(C)C)[C@@H](C)O` [compound 63], for which the IC50 on HLA-DRB1*12:01 is 2.07 µM; against HLA-DRB1*07:01 it was 0.012 µM; against HLA-DRB1*08:02, over 40 µM; on HLA-DRB1*15:01 it was 0.021 µM; at HLA-DRB1*04:05, 0.201 µM; on HLA-DRB1*04:01, 0.062 µM. The 50% inhibitory concentration (IC50) at HLA-DRB1*11:01 was 1.14 µM; at HLA-DRB1*03:01, over 40 µM; against HLA-DRB1*01:01, 2.39 µM; against HLA-DRB1*09:01 it was 0.305 µM; against HLA-DRB1*13:02, 10.7 µM.
As to `CC[C@H](C)[C@H](NC(=O)[C@H](Cc1ccccc1)NC(=O)[C@H](CO)NC(=O)[C@H](CCCNC(=N)N)NC(=O)[C@H](CCCCN)NC(=O)[C@H](CO)NC(=O)[C@@H]1CCCN1C(=O)[C@@H](N)CCCCN)C(=O)N[C@@H](CCC(=O)O)C(=O)N[C@@H](CC(=O)O)C(=O)N[C@@H](CC(C)C)C(=O)N[C@@H](CC(C)C)C(=O)N[C@@H](Cc1ccccc1)C(=O)N[C@@H](CC(N)=O)C(=O)N[C@@H](CCCCN)C(=O)O` [peptide 163], the IC50 against HLA-DRB1*12:01 stood at 3.98 µM; against HLA-DRB1*07:01, 1.93 µM; at HLA-DRB1*08:02, 3.41 µM; against HLA-DRB1*15:01 it was 6.81 µM; at HLA-DRB1*04:05, 3.44 µM; at HLA-DRB1*04:01, 0.451 µM. The half-maximal inhibitory concentration (IC50) at HLA-DRB1*11:01 was 0.301 µM; against HLA-DRB1*03:01, 1.5 µM; on HLA-DRB1*01:01 it was over 40 µM; at HLA-DRB1*09:01, 0.519 µM; at HLA-DRB1*13:02 it was over 40 µM.
Turning to `CC[C@H](C)[C@H](NC(=O)[C@H](CCCNC(=N)N)NC(=O)[C@H](CCCCN)NC(=O)[C@H](CCCNC(=N)N)NC(=O)[C@H](CC(N)=O)NC(=O)[C@H](Cc1c[nH]c2ccccc12)NC(=O)[C@H](C)NC(=O)[C@H](Cc1ccc(O)cc1)NC(=O)[C@@H](NC(=O)[C@H](CO)NC(=O)[C@H](C)NC(=O)[C@H](Cc1ccccc1)NC(=O)[C@@H](N)CCCNC(=N)N)C(C)C)C(=O)N[C@@H](CO)C(=O)N[C@@H](CC(N)=O)C(=O)O` [compound 70], the IC50 on HLA-DRB1*12:01 was 31.6 µM; on HLA-DRB1*07:01, 0.54 µM; against HLA-DRB1*08:02 it was 0.064 µM; on HLA-DRB1*15:01, 0.136 µM; against HLA-DRB1*04:05 it was 6.27 µM; at HLA-DRB1*04:01 it was 7.89 µM. The IC50 was 0.0039 µM against HLA-DRB1*11:01; over 40 µM against HLA-DRB1*03:01; 5.93 µM against HLA-DRB1*01:01; 1.38 µM at HLA-DRB1*09:01; over 40 µM against HLA-DRB1*13:02.
For the compound `CC(C)[C@H](NC(=O)CNC(=O)[C@H](Cc1ccc(O)cc1)NC(=O)[C@H](CS)NC(=O)[C@H](CCCCN)NC(=O)[C@H](Cc1ccccc1)NC(=O)[C@@H](NC(=O)[C@H](CO)NC(=O)[C@H](Cc1ccccc1)NC(=O)[C@H](CO)NC(=O)[C@H](C)NC(=O)[C@@H](N)CO)[C@@H](C)O)C(=O)N[C@@H](CO)C(=O)N1CCC[C@H]1C(=O)N[C@H](C(=O)O)[C@@H](C)O` [peptide 75], the IC50 on HLA-DRB1*12:01 is 11.5 µM; against HLA-DRB1*07:01, 0.519 µM; at HLA-DRB1*08:02 it was 4.67 µM; at HLA-DRB1*15:01, 0.711 µM; at HLA-DRB1*04:05 it was 0.559 µM; at HLA-DRB1*04:01, 3.33 µM. For the same compound, the IC50 at HLA-DRB1*11:01 was 0.626 µM; against HLA-DRB1*03:01, over 40 µM; at HLA-DRB1*01:01, 5.29 µM; against HLA-DRB1*09:01 it was 0.117 µM; against HLA-DRB1*13:02 it was over 40 µM.
`CC[C@H](C)[C@H](N)C(=O)N1CCC[C@H]1C(=O)N[C@@H](Cc1ccccc1)C(=O)N[C@@H](C)C(=O)N[C@@H](CCSC)C(=O)N[C@@H](CCC(N)=O)C(=O)N[C@@H](CCSC)C(=O)N[C@@H](C)C(=O)N[C@@H](Cc1ccc(O)cc1)C(=O)N[C@@H](CCCNC(=N)N)C(=O)N[C@@H](Cc1ccccc1)C(=O)N[C@@H](CC(N)=O)C(=O)NCC(=O)N[C@H](C(=O)NCC(=O)O)[C@@H](C)CC` [peptide 180]: the IC50 against HLA-DRB1*12:01 stood at 0.0022 µM; against HLA-DRB1*07:01 it was 0.025 µM; against HLA-DRB1*08:02 it was 0.553 µM; on HLA-DRB1*15:01, 0.192 µM; on HLA-DRB1*04:05 it was 1.61 µM; at HLA-DRB1*04:01, 0.443 µM. For the same compound, the IC50 against HLA-DRB1*11:01 was determined as 0.023 µM; at HLA-DRB1*03:01, 11.7 µM; on HLA-DRB1*01:01 it was 0.058 µM; against HLA-DRB1*09:01, 0.0079 µM; against HLA-DRB1*13:02, 13.7 µM.
For `CSCC[C@H](NC(=O)[C@H](CC(C)C)NC(=O)[C@H](Cc1ccccc1)NC(=O)[C@@H]1CCCN1C(=O)[C@H](CCC(N)=O)NC(=O)[C@H](CO)NC(=O)[C@@H](NC(=O)[C@H](Cc1ccc(O)cc1)NC(=O)[C@H](CCC(=O)O)NC(=O)[C@H](Cc1ccccc1)NC(=O)[C@@H](NC(=O)[C@@H](N)CS)[C@@H](C)O)C(C)C)C(=O)N[C@@H](CC(=O)O)C(=O)N[C@@H](CC(C)C)C(=O)N[C@@H](CCC(=O)O)C(=O)O` [peptide 34], the IC50 on HLA-DRB1*12:01 is 0.416 µM; on HLA-DRB1*08:02, 1.47 µM; against HLA-DRB1*15:01, 7.24 µM; at HLA-DRB1*04:05, 0.016 µM; against HLA-DRB1*04:01, 1.15 µM; against HLA-DRB1*11:01 it was 3.38 µM. The results for the IC50 against HLA-DRB1*03:01 and on HLA-DRB1*01:01 were 5.86 µM and 0.495 µM, respectively.
For `CC[C@H](C)[C@H](NC(=O)[C@H](CC(=O)O)NC(=O)CNC(=O)[C@H](CC(C)C)NC(=O)[C@H](CS)NC(=O)[C@H](CC(=O)O)NC(=O)CNC(=O)[C@H](Cc1ccc(O)cc1)NC(=O)[C@H](CCC(N)=O)NC(=O)[C@H](CCCCN)NC(=O)[C@@H](NC(=O)[C@H](Cc1ccccc1)NC(=O)CNC(=O)[C@H](C)N)[C@@H](C)CC)C(=O)N[C@@H](C)C(=O)O` [peptide 167], the IC50 against HLA-DRB1*12:01 came out at 17 µM; against HLA-DRB1*07:01, 0.74 µM; against HLA-DRB1*08:02, 22.3 µM; against HLA-DRB1*15:01, 0.716 µM; against HLA-DRB1*04:05 it was 0.95 µM; against HLA-DRB1*04:01, 0.836 µM. In addition, the IC50 against HLA-DRB1*11:01 came to 3.75 µM; against HLA-DRB1*01:01 it was 1.1 µM; on HLA-DRB1*09:01, 1.56 µM.
